From BigSolDB 2.1

CCOC(=O)[C@@H](N)CCc1ccccc1.Cl
solubility (mole fraction)
Conditions	283.15 K	288.15 K	293.15 K	298.15 K	303.15 K	313.15 K	323.15 K
in 1,4-dioxane	–	0.00221	0.00266	–	0.00381	0.00845	0.0142
in 2-butanone	0.00022	–	0.00031	–	0.0004	0.00073	0.0013
in acetone	0.00068	–	0.00117	–	0.00182	0.00297	0.00505
in dichloromethane	0.0172	0.0233	0.0303	0.0386	0.0489	–	–
in ethanol	0.031	–	0.0393	–	0.0505	0.0666	0.0867
in isobutanol	0.0101	–	0.014	–	0.0203	0.0311	0.0472
in isopropanol	0.00726	–	0.0096	–	0.0135	0.0192	0.0286
in methyl acetate	4e-05	–	5e-05	–	0.00012	0.00024	0.00034
in n-butanol	0.0128	–	0.0163	–	0.022	0.0253	0.0277
in n-pentanol	0.0161	–	0.0215	–	0.0294	0.0427	0.0595
in n-propanol	0.019	–	0.0262	–	0.0353	0.0487	0.0679
in sec-butanol	0.00416	–	0.00614	–	0.00846	0.013	0.0257
